In patent US11104670B2, “4-pyrimidin-5-ylmethyl-morpholine derivatives and the use thereof as medicament” (Boehringer Ingelheim International GmbH, priority 2018, dated 2021) one finds IC50 data, which are given here for ten compounds.

The structures appear in SMILES notation.

Sequence of NMDA NR1/NR2B receptor (Q13224 27-1484, other chains not shown): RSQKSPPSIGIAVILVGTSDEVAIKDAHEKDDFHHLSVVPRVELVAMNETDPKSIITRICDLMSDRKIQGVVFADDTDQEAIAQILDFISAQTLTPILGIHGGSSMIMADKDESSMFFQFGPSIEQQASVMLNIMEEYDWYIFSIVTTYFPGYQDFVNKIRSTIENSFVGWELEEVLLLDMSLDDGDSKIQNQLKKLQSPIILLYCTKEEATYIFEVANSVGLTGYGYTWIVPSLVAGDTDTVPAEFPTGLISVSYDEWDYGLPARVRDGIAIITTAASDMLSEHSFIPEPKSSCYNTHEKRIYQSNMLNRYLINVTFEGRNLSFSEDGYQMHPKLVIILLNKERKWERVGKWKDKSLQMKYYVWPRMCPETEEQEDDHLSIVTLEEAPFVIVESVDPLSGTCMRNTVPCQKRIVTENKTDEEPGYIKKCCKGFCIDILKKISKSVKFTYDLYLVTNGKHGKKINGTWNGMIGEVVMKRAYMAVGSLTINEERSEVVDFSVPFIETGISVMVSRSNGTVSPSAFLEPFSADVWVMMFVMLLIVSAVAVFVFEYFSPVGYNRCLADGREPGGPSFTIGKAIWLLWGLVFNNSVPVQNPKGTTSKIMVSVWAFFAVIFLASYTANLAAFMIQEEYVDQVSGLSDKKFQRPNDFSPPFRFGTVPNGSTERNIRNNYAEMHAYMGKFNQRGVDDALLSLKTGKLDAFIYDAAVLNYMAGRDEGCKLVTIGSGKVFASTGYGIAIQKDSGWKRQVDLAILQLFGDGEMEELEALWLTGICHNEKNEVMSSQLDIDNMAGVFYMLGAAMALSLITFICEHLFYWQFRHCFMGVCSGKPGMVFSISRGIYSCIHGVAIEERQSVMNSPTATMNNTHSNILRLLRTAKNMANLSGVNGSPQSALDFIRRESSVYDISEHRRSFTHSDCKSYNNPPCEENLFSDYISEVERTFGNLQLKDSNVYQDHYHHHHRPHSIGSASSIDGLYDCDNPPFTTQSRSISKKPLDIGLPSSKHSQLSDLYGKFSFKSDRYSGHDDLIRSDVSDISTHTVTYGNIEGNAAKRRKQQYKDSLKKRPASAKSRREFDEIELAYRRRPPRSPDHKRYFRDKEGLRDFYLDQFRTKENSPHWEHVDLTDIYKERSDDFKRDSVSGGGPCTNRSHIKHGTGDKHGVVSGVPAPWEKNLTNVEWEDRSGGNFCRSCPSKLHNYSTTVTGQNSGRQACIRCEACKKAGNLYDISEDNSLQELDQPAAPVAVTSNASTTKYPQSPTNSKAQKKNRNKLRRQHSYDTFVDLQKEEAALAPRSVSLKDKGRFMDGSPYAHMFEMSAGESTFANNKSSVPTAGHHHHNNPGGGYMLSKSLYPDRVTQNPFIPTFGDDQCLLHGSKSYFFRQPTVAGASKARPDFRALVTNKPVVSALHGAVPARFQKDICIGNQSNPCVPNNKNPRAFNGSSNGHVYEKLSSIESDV

The assay addresses NMDA NR1/NR2B receptor (Homo sapiens (Human), UniProt Q13224). The assay can be described thus: NMDA NR1/NR2B FLIPR calcium assay in HEK293 cells. It counts as cell-based. To be noted: glycine/glutamate-induced calcium, read-out: IC50, in vitro NR2B affinity in the FLIPR assay. As to the method: A human HEK293 cell line with tetracyclin-inducible expression of NMDA NR1/NR2B receptor was used as a test system for compound efficacy and potency. The cell line was purchased from ChanTest, Catalog #CT6121. Compound activity was determined by measuring the effect of compounds on intracellular calcium concentration induced by glycine/glutamate agonism in a FLIPRtetra system (Molecular Devices).
The cells were obtained as frozen cells in cryo-vials and stored until use at −150° C. Cells were grown in culture medium (DMEM/F12, 10% FBS, 5 μg/mL Blasticidin, 150 μg/mL Zeozin, 500 μg/mL Geneticin). […] For sub-culturing the cells were detached from flasks by Versene. For the assay, cells were detached, washed twice with induction medium (DMEM/F12 without glutamine, 10% FBS, 2 μg/mL Tetracycline, 2 mM Ketamine) and seeded to 384 well pure coat amine plates (Becton Dickinson, 50000 cells per well in 50 μl) 48 h prior to assay in induction medium.
The test compounds were dissolved in 100% DMSO at a concentration of 10 mM and in a first step diluted in DMSO to a concentration of 5 mM, followed by serial dilution steps in 100% DMSO. Dilution factor and number of dilution steps may vary according to needs. Typically 8 different concentrations by 1:5 dilutions were prepared in duplicate, further intermediate dilutions (1:37.5) of the substances were carried out with aqueous assay buffer (137 mM NaCl, 4 mM KCl, 1.8 mM CaCl2), 10 mM HEPES, 10 mM Glucose, pH 7.4) resulting in a compound concentration 3 times above the final test concentration and DMSO at 2.7% resulting in 0.9% final DMSO concentration in the assay.
At the assay day cells were washed 3× with assay buffer (as described above), 10 μL buffer remained in the wells after washing. 10 μL Ca kit loading buffer (AAT Bioquest; prepared from the kit containing the following components: Component A: Fluo-8 NW dissolved in 200 μL DMSO and 20 μl of this solution are mixed with 10 ml buffer prepared out of component B and C, Component B: 10× Pluronic® F127 Plus diluted 1:10 in component C, Component C: HHBS (Hanks with 20 mM Hepes) was added to the cells and the plates were incubated with lid for 60 minutes at room temperature. 20 μl assay buffer containing 60 μM glycine (20 μM final) and 3 μM glutamate (1 μM final) was added to column 1-23, column 24 got assay buffer without glycine/glutamate to serve as negative unstimulated control. Fluorescence (indicating the calcium influx as a result of the NR1/NR2B ion channel activation) was read on the FLIPRtetra device for 60 seconds to monitor the glutamate induced effects. After 2 minutes 20 μL of compound dilution prepared as described above or controls (row 1-22) in assay buffer were carefully added to the wells. […] The average of 2 measurements at 5 minutes and 5 min 10 seconds after compound addition is calculated and further used for IC50 calculations. Each assay microtiter compound dilution plate contained wells (in column 23 or 24) with DMSO controls instead of compound as controls for glycine/glutamate induced fluorescence (high controls) and wells with 1 μM of a reference NR2B NAM as low controls (Compound 22; reference: Layton, Mark E et al, ACS Chemical Neuroscience 2011, 2(7), 352-362).
The output file of the reader contains the well number and measured average fluorescence units. For data evaluation and calculation, the measurement of the low control was set as 0% control and the measurement of the high control was set as 100% control. The IC50 values were calculated using the standard 4 parameter logistic regression formula. Calculation: [y=(a−d)/(1+(x/c)^b)+d], a=low value, d=high value; x=conc M; c=IC50 M; b=slope.
The term IC50 denotes the concentration at which inhibition is half-maximal. Consider `CNC(=O)[C@@H]1CN(Cc2cnc(Oc3ccc(F)cc3)nc2)CCO1` [Example 32], for which the IC50 is 547 nM.

As to `CNC(=O)[C@@H]1CN(Cc2cnc(Oc3ccccc3F)nc2)CCO1` [Example 27], the IC50 was determined as 350 nM.

Turning to `CNC(=O)[C@@H]1CN(Cc2cnc(Oc3ccc(C)cc3C)nc2)CCO1` [Example 22], the IC50 was 1110 nM.

With `CNC(=O)[C@@H]1CN(Cc2cnc(Oc3ccccc3Cl)nc2)CCO1` [Example 26], the IC50 is 550 nM.

As to `CNC(=O)[C@@H]1CN(Cc2cnc(Oc3ccc(C)cc3F)nc2)CCO1` [Example 20], the IC50 worked out at 133 nM.

`CNC(=O)[C@@H]1CN(Cc2cnc(Oc3ccc(Cl)cc3F)nc2)CCO1` [Example 24]: the IC50 turned out to be 98 nM.

On to `CNC(=O)[C@@H]1CN(Cc2cnc(Oc3ccc(F)cc3C)nc2)CCO1` [Example 21], for which the IC50 was 702 nM.

With `CNC(=O)[C@@H]1CN(Cc2cnc(Oc3ccc(C)cc3)nc2)CCO1` [Example 28], the IC50 was found to be 500 nM.

Regarding `CNC(=O)[C@@H]1CN(Cc2cnc(Oc3ccc(Cl)cc3)nc2)CCO1` [Example 25], the IC50 was 216 nM.

As to `CNC(=O)[C@@H]1CN(Cc2cnc(Oc3ccc(F)cc3F)nc2)CCO1` [Example 23], the IC50 came to 143 nM.
